The values that follow come from PubChem BioAssay (NCI).

Values joined by “and” are separate entries in the source; they are usually repeats but may differ in a detail not shown here. Equal entries are not always repeated.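 How tested: cells in 96-well plates exposed to compound for 48 hours at five concentrations. GI50: concentration for 50% inhibition of growth. TGI: total growth inhibition.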 Bounds are passed on as bounds.

Common to all, as to assay: NCI tumour cell line growth inhibition, 48 h
The subject of assay [1] is SNB-19 CNS.
In assay [2] the test system is OVCAR-3 ovarian.
Assay [3] deals with MCF7 breast.
The test system of assay [4] is COLO 205 colon.
Assay [5] concerns SF-268 CNS.
Assay [6] relates to HT29 colon.
The test system of assay [7] is UO-31 renal.
For assay [8], the system named is SNB-75 CNS.
For assay [9], the system named is HCT-116 colon.
Assay [10] relates to A549 NSCLC.
Assay [11] concerns OVCAR-8 ovarian.
Assay [12] has as its system PC-3 prostate.
Assay [13] concerns SK-MEL-2 melanoma.

For the molecule `NC(=O)C(=CNC(=S)Nc1cccc(C(F)(F)F)c1)C(N)=O`, the TGI in assay [1], in [2], in assay [3], in [4], in [5] and in assay [6] was greater than 100 µM throughout. Further, the TGI in assay [7], in assay [8], in assay [9], in [10], in assay [11] and in assay [12] was greater than 100 µM each time. This molecule also returned a TGI in [13] greater than 100 µM.

With `COc1cc(C=O)cc(O)c1O`, the TGI in assay [1], in [2], in assay [4], in assay [5], in assay [6] and in assay [7] was greater than 100 µM throughout. The TGI in [8], in assay [9], in [10] and in assay [11] was greater than 100 µM each time.

Turning to `N#Cc1c(O)c2ccccc2[nH]c1=O`, the TGI in [1], in assay [2], in assay [3], in [4], in assay [6] and in [7] was greater than 100 µM each time. The TGI in [8], in [9], in assay [10], in assay [11], in assay [12] and in assay [13] was greater than 100 µM in each case.

In the case of `O=c1c([OH2+])c(-c2ccc(O)cc2[O-])oc2cc(O)cc([O-])c12.O=c1c([OH2+])c(-c2ccc(O)cc2[O-])oc2cc(O)cc([O-])c12.[Ti+4]`, the TGI in assay [1], in assay [2], in assay [4], in assay [5], in assay [6] and in assay [7] was greater than 100 µM each time. For the same molecule, the TGI in [8], in [9], in assay [10], in assay [11] and in assay [13] was greater than 100 µM in each case.

On to `O=c1ccnc2ccc3n[nH][nH]c3c12`, for which the TGI in assay [1], in [2], in assay [4], in assay [5], in [6] and in [8] was greater than 100 µM in each case. Besides, the TGI in assay [9], in assay [10], in assay [11] and in assay [13] was greater than 100 µM each time.

As to `CCOC(=O)C(=O)NC12CC3CC(CC(C3)C1)C2`, the TGI in assay [1], in assay [4], in [5], in assay [6], in assay [7] and in assay [8] was greater than 100 µM throughout. In addition, the TGI in assay [9], in assay [10], in assay [11] and in [13] was greater than 100 µM in each case.

As to `O=C1CCCc2ccc3c(c21)CC1(Cc2ccccc2C1)C3`, the TGI in assay [2] is 98.6 µM; in [3], greater than 100 µM; in [4], 52.3 µM; in [6] it was 45 µM; in assay [7], greater than 100 µM; in [8], 9.64 µM. Also, the TGI in [9] is 55.7 µM; in assay [10] it was greater than 100 µM; in assay [11], greater than 100 µM; in assay [12], greater than 100 µM; in assay [13], greater than 100 µM.

Regarding `COc1cccc2c1C(=O)c1c(O)c3c(c(O)c1C2=O)C[C@@](O)(C(=O)CO)CC3OC1CC(NCCCC(OC(C)=O)OC(C)=O)C(O)C(C)O1` (stereo partly specified), the GI50 in [1] is 0.000202 µM; in assay [8], less than 0.0001 µM; in assay [11], less than 0.0001 µM; in assay [13] it was less than 0.0001 µM. Further, the TGI in assay [7] was 0.00427 µM; in [8] it was 0.00403 µM and 0.000406 µM; in assay [11], 0.0119 µM.

As for `CC(O)[C@@]1(c2ccccc2)CC2(CCN(C)CC2)O[C@H]1C` (stereo partly specified), the TGI in assay [1], in assay [2], in [3], in assay [4], in [5] and in [6] was greater than 100 µM in each case. The TGI in [7], in [8], in [10], in [11], in [12] and in assay [13] was greater than 100 µM in each case.

`CN(C(=O)c1ccco1)C(=S)N1CCN(c2ccccn2)CC1`: the TGI in assay [1], in assay [2], in [4], in [5], in [6] and in [7] was greater than 100 µM throughout. For the same molecule, the TGI in assay [8], in assay [9], in [10], in [11] and in [13] was greater than 100 µM throughout.

In the case of `O=c1c2c(F)c(F)c(F)c(F)c2sc2nccn12`, the TGI in [1] is 35.9 µM; in [2], 29.8 µM; in [3], 37.9 µM; in assay [4], 32.7 µM; in assay [5], 36.2 µM; in assay [6], 34.7 µM. For the same molecule, the TGI was found to be 50.4 µM in [8]; 27.7 µM in [9]; 36.7 µM in assay [10]; 44.8 µM in [11]; 35.9 µM in assay [12]; 38.5 µM in assay [13].

Consider `c1ccc([P+](CCCCCC[P+](c2ccccc2)(c2ccccc2)c2ccccc2)(c2ccccc2)c2ccccc2)cc1`, for which the TGI is greater than 100 µM in assay [1]; greater than 100 µM in assay [2]; 74.1 µM in assay [3]; 13.8 µM in assay [4]; greater than 100 µM in [5]; greater than 100 µM in assay [6]. Besides, the TGI was greater than 100 µM in [7]; greater than 100 µM in assay [8]; greater than 100 µM in [9]; greater than 100 µM in [10]; 71.2 µM in assay [11]; greater than 100 µM in assay [12].
